# Measured values from ChEMBL document CHEMBL1129248, “7-[3-(1-piperidinyl)propoxy]chromenones as potential atypical antipsychotics” (1996).
# Legend:
# Mus musculus [1] = test: Inhibition of apomorphine-induced Hyperactivity in mice, after Intraperitoneal administration; type: functional; conditions: ip
# Mus musculus [2] = test: Inhibition of apomorphine-induced climbing behavior in mice, after peroral administration; type: functional; conditions: po
# [3] = Inhibition of apomorphine-induced climbing behavior in mice, after intraperitoneal administration; type: functional; conditions: Mus musculus, ip
# Rattus norvegicus [4] = test: Percent inhibition of apomorphine-induced stereotypy in rat after an intraperitoneal dose of 50 mg/kg; type: functional; conditions: ip
# [5] = Inhibition of apomorphine-induced hyperactivity in mice after peroral administration; type: functional; conditions: Mus musculus, po
# Rattus norvegicus [6] = test: Dose required to induce 50% maximum catalepsy in rat administered perorally; type: functional; conditions: po
# [7] = Inhibition of apomorphine-induced hyperactivity behavior in mice, after peroral administration; type: functional; conditions: Mus musculus, po
# Rattus norvegicus [8] = test: Inhibition of apomorphine-induced stereotypy in rat, after peroral administration; type: functional; conditions: po
# [9] = (§1) Inhibition of apomorphine-induced climbing behavior in mice, after Intraperitoneal administration; type: functional; conditions: Mus musculus, ip
# Mus musculus [10] = test: Inhibition of apomorphine-induced hyperactivity in mice, after peroral administration; type: functional; conditions: po
# Rattus norvegicus [11] = organism: Rattus norvegicus; test: Dose required to induce 50% maximum catalepsy in rat; type: functional
# Rattus norvegicus [12] = test: Inhibition of apomorphine-induced stereotypy in rat after peroral administration; type: functional; conditions: po
# Mus musculus [13] = test: Inhibition of apomorphine-induced hyperactivity in mice, after peroral administration; conditions: po
# Rattus norvegicus [14] = test: Inhibition of apomorphine-induced stereotypy in Rat, after peroral administration; type: functional; conditions: po
# Mus musculus [15] = test: as §1; type: functional; conditions: ip
# Rattus norvegicus [16] = organism: Rattus norvegicus; test: Dose required to induce 50% maximum catalepsy in rat
SMILES,ED50 (Mus musculus [1]),ED50 (Mus musculus [2]),ED50 [3],inhibition in vivo at 50 mg/kg (Rattus norvegicus [4]),ED50 [5],further results
CC1CN(C(=O)c2ccc(F)cc2)CCN1CCCC(=O)c1ccc(F)cc1 (configuration not stated),> 50 mg/kg,> 200 mg/kg,> 50 mg/kg,22%,> 200 mg/kg,–
CC1CN(Cc2ccc(F)cc2)CCN1CCCC(=O)c1ccc(F)cc1 (configuration not stated),45 mg/kg,> 200 mg/kg,> 50 mg/kg,19%,> 200 mg/kg,–
O=C(c1ccc(F)cc1)C1CCN(CCCOc2ccc3c(=O)c(CO)coc3c2)CC1,–,–,–,–,–,ED50 (Rattus norvegicus [6]): 14 mg/kg; ED50 [7]: 1.32 mg/kg; ED50 (Rattus norvegicus [8]): 35.9 mg/kg
O=C(CCCN1CCC(Cc2ccccc2)CC1)c1ccc(F)cc1,12.3 mg/kg,15.2 mg/kg,2.85 mg/kg,46%,–,–
O=C(c1ccc(F)cc1)C1CCN(CCCOc2ccc(F)cc2)CC1,1.15 mg/kg,4.3 mg/kg,–,–,4.9 mg/kg,ED50 [9]: 1.82 mg/kg
CC1CN(Cc2ccccc2)CCN1CCCC(O)c1ccc(F)cc1 (configuration not stated),35 mg/kg,> 200 mg/kg,> 50 mg/kg,16%,> 200 mg/kg,–
CC1CN(Cc2ccc(F)cc2)CCN1CCCC(O)c1ccc(F)cc1 (configuration not stated),50 mg/kg,> 200 mg/kg,30 mg/kg,48%,> 200 mg/kg,–
CC1CN(C(=O)c2ccc(F)cc2)CCN1CCCC(O)c1ccc(F)cc1 (configuration not stated),> 50 mg/kg,> 200 mg/kg,> 50 mg/kg,0%,> 200 mg/kg,–
CC1CN(Cc2ccccc2)CCN1CCCC(=O)c1ccc(F)cc1 (configuration not stated),30 mg/kg,> 200 mg/kg,28.2 mg/kg,30%,–,ED50 (Mus musculus [10]): > 200 mg/kg
CN1CCN(C2=Nc3cc(Cl)ccc3Nc3ccccc32)CC1 [CLOZAPINE],–,–,–,–,–,ED50 (Rattus norvegicus [11]): 107 mg/kg; ED50 [9]: 7.7 mg/kg; ED50 (Rattus norvegicus [12]): 85.3 mg/kg; ED50 (Mus musculus [13]): 11 mg/kg
O=C(CCCN1CCC(O)(c2ccc(Cl)cc2)CC1)c1ccc(F)cc1 [HALOPERIDOL],–,–,–,–,–,ED50 (Rattus norvegicus [11]): 2.5 mg/kg; ED50 [9]: 0.21 mg/kg; ED50 (Rattus norvegicus [14]): 1.95 mg/kg; ED50 (Mus musculus [13]): 0.56 mg/kg
CCN1CCC[C@H]1CNC(=O)c1c(OC)ccc(Br)c1OC [REMOXIPRIDE],–,–,5.2 mg/kg,–,–,ED50 (Rattus norvegicus [6]): 64.3 mg/kg; ED50 [7]: 11.1 mg/kg; ED50 (Rattus norvegicus [8]): 48.7 mg/kg
Cc1nc2n(c(=O)c1CCN1CCC(c3noc4cc(F)ccc34)CC1)CCCC2 [RISPERIDONE],–,0.74 mg/kg,–,–,–,ED50 (Mus musculus [15]): 0.2 mg/kg; ED50 (Rattus norvegicus [14]): 3.8 mg/kg; ED50 (Rattus norvegicus [16]): 5 mg/kg
